Earlier results as cited in US9289495B2, “Systems and methods for treatment of allergies and other indications” (Strategic Science & Technologies, LLC, priority 2011, dated 2016).

pKa: 8.7-9.2
Compound: CN(C)CCOC(C)(c1ccccc1)c1ccccn1 (stereo not shown) [doxylamine]
